From patent publication US9775904B2 (priority 2014, dated 2017)
Like-named read-outs stand apart in the source and are kept apart here.

Key:
[1] = molecular target: T1, human GLP-1 receptor (hGLP-1 R) (Homo sapiens, UniProt P43220); experiment: cAMP response of HEK-293 cells expressing human GLP-1 receptor (HTRF); type: cell-based; details: Table 6
T1 construct: expressed in transfected cells
Procedure: (§1) cAMP content of cells was determined using a kit from Cisbio Corp. (cat. no. 62AM4PEC) based on HTRF (Homogenous Time Resolved Fluorescence). For preparation, cells were split into T175 culture flasks and grown overnight to near confluency in medium (DMEM/10% FBS). Medium was then removed and cells washed with PBS lacking calcium and magnesium, followed by proteinase treatment with accutase (Sigma-Aldrich cat. no. A6964). Detached cells were washed and resuspended in assay buffer (1×HBSS; 20 mM HEPES, 0.1% BSA, 2 mM IBMX) and cellular density determined. They were then diluted to 400000 cells/ml and 25 μl-aliquots dispensed into the wells of 96-well plates. For measurement, 25 μl of test compound in assay buffer was added to the wells, followed by incubation for 30 minutes at room temperature.

[2] = molecular target: T2, human glucagon receptor (hGlucagon R) (Homo sapiens, UniProt P47871); experiment: cAMP response of HEK-293 cells expressing human glucagon receptor (HTRF); type: cell-based; details: Table 6
T2 construct: expressed in transfected cells
Procedure: as §1

[3] = molecular target: T3, human GIP receptor (hGIP-R) (Homo sapiens, UniProt P48546); experiment: cAMP response of HEK-293 cells expressing human GIP receptor (HTRF); type: cell-based; details: Table 6; read-out: EC50 hGIP-R
T3 construct: expressed in transfected cells
T3 sequence (P48546 22-466): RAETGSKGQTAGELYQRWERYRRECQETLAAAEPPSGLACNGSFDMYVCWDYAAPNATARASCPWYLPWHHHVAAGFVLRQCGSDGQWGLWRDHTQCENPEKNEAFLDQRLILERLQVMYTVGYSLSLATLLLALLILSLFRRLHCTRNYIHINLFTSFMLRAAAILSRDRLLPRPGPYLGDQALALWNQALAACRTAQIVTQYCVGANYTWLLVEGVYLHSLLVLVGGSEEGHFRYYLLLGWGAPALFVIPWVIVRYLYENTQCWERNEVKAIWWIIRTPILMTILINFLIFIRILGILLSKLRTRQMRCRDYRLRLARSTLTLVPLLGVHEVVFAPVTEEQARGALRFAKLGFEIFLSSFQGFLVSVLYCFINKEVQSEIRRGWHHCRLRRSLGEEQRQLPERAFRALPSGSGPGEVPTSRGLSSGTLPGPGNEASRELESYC
Procedure: as §1

[4] = Solubility testing in buffer (HPLC-UV); type: physicochemical
Procedure: Prior to the testing of solubility and stability of a peptide batch, its purity (HPLC-UV) was determined.
. Therefore, solutions from solid samples were prepared in different buffer systems with a concentration of 10 mg/mL compound based on the previously determined % purity. HPLC-UV was performed after 2 h of gentle agitation from the supernatant, which was obtained by 20 min of centrifugation at 4500 rpm.
[…]. This analysis also served as starting point (t0) for the stability testing.

[5] = Pharmacokinetic testing in mice, s.c.; type: in vivo; details: mouse, plasma, sc, 1 mg/kg s.c.
Procedure: (§2) Mice were dosed 1 mg/kg subcutaneously (s.c.). The mice were sacrified and blood samples were collected after 0.25, 0.5, 1, 2, 4, 8, 16 and 24 hours post application. Plasma samples were analyzed after protein precipitation via liquid chromatography mass spectrometry (LC/MS). PK parameters and half-life were calculated using WinonLin Version 5.2.1 (non-compartment model).

[6] = Pharmacokinetic testing in Göttinger minipigs, s.c.; type: in vivo; details: female, minipig, plasma, sc, Mini pigs, 0.1 mg/kg s.c.
Procedure: as §2, with “Female Göttinger minipigs were” for “Mice were”, “dosed 0.1” for “dosed 1”, “(s.c.). Blood” for “(s.c.). The mice were sacrified and blood”, “8, 24, 32, 48, 56” for “8, 16”, “and 72” for “and 24”

[7] = Acute effect on blood glucose in fed female DIO C57BL/6 mice; type: in vivo; details: 50 μg/kg s.c.; t=1, 2, 3, 4, 6 and 24 h post dosing; p<0.0001
Procedure: (§3) C57BL/6 Harlan mice are housed in groups in a specific pathogen-free barrier facility on a 12 h light/dark cycle with free access to water and standard or high-fat diet. After prefeeding on high-fat diet, mice are stratified to treatment groups (n=8), so that each group has similar mean body weight. An age-matched group with ad-libitum access to standard chow is included as standard control group. Before the experiment, mice are subcutaneously (s.c.) injected with vehicle solution and weighed for 3 days to acclimate them to the procedures.
1) Acute effect on blood glucose in fed female DIO mice: initial blood samples are taken just before first administration (s.c.) of vehicle (phosphate buffer solution) or the exendin-4 derivatives (dissolved in phosphate buffer), respectively. The volume of administration is 5 mL/kg. The animals have access to water and their corresponding diet during the experiment. Blood glucose levels are measured at t=0 h, t=1 h, t=2 h, t=3 h, t=4 h, t=6 h and t=24 h (method: Accu-Check glucometer). Blood sampling is performed by tail incision without anaesthesia.
(§4) Statistical analyses are performed with Everstat 6.0 by repeated measures two-way ANOVA and Dunnetts post-hoc analyses (glucose profile) and 1-way-ANOVA, followed by Dunnetts post-hoc test (body weight, body fat). Differences versus vehicle-treated DIO control mice are considered statistically significant at the p<0.05 level.
At predefined time points, more blood samples were taken to measure blood glucose and generate the blood glucose profile over 24 h.

[8] = Chronic effect on body weight and body fat in female DIO C57BL/6 mice, 4 weeks; type: in vivo; details: 50 μg/kg bid s.c.; for Day on which significant body weight decrease begins / Daily body weight compared to vehicle DIO control mice: 4 weeks; for Day on which significant body weight decrease begins: continuing through the end of the study; for Daily body weight compared to vehicle DIO control mice: p>0.0001 by the end of the study (so in the source); for Body fat change / Overall weight change: DIO mice, 4-week treatment, mean ± SEM; for Body fat change: NMR
Procedure: as §3
2) Chronic effect on body weight in female DIO mice: mice are treated once (s.c. in evening hours) or twice daily (s.c. in the morning and in the evening), respectively, at the beginning and the end of the light phase with either vehicle or exendin-4 derivatives for 4 weeks. Body weight is recorded daily. Two days before start of treatment and on day 26, total fat mass is measured by nuclear magnetic resonance (NMR).
as §4
Body weight was recorded daily, and body fat content was determined before the start and after 4 weeks of treatment. […] These changes resulted from a decrease in body fat, as shown by the absolute changes in body fat content (Table 10, FIG. 3).
Body weight was recorded daily, and body fat content was determined before the start and after 4 weeks of treatment.

[9] = pH 4.5, target concentration 10 mg/ml, read-out: solubility [mg/ml] pH 4.5
[10] = pH 7.4, target concentration 10 mg/ml, read-out: solubility [mg/ml] pH 7.4

T2 sequence (P47871 26-477): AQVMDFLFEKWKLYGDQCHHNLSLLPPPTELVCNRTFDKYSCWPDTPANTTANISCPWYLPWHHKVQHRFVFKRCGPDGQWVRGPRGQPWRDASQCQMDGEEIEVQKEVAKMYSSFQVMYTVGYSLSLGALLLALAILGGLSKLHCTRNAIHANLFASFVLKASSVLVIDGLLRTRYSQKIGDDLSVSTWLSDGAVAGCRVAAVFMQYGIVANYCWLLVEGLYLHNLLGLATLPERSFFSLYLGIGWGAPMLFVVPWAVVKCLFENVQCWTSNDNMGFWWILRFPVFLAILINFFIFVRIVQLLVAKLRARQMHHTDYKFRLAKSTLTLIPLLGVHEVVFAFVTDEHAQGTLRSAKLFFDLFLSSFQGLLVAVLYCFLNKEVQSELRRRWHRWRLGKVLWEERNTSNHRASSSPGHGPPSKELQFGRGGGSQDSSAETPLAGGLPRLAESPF
T1 sequence (P43220 24-463): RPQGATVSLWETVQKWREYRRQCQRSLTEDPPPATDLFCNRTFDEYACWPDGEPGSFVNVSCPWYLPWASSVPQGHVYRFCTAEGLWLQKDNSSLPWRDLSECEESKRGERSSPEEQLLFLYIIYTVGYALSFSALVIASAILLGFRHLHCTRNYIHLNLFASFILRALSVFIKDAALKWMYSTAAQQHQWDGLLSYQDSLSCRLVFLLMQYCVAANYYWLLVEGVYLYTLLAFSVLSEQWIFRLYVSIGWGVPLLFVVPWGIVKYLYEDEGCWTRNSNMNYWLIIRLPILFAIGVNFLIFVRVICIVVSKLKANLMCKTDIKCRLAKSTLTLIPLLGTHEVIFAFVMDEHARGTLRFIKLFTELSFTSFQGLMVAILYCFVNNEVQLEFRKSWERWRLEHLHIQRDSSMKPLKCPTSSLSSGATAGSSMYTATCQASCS

SMILES | EC50 [1] [nM] | EC50 [2] [nM] | EC50 [3] [nM] | solubility at 2 h [4, 9] [mg/mL] | solubility at 2 h [4, 10] [mg/mL] | Cmax [5] [ng/mL] | half-life [5] [h] | Cmax [6] [ng/mL] | half-life [6] [h] | Blood glucose compared to DIO control mice [7] | Day on which significant body weight decrease begins [8] [days] | Daily body weight compared to vehicle DIO control mice [8] | Body fat change [8] [g] | Overall weight change [8] [g]
CCCCCCCCCCCCCCCC(=O)N[C@@H](CCC(=O)N[C@@H](CCC(=O)NCCCC[C@H](NC(=O)[C@H](CCC(N)=O)NC(=O)[C@H](CCCCN)NC(=O)[C@H](CO)NC(=O)[C@H](CC(C)C)NC(=O)[C@H](CC(=O)O)NC(=O)[C@H](CO)NC(=O)[C@@H](NC(=O)[C@H](Cc1ccccc1)NC(=O)[C@@H](NC(=O)CNC(=O)[C@H](CCC(N)=O)NC(=O)C(C)(C)NC(=O)[C@@H](N)Cc1c[nH]cn1)[C@@H](C)O)[C@@H](C)O)C(=O)N[C@@H](CC(=O)O)C(=O)N[C@@H](CCC(=O)O)C(=O)N[C@@H](CCC(N)=O)C(=O)N[C@@H](CCCNC(=N)N)C(=O)N[C@@H](C)C(=O)N[C@@H](CCCCN)C(=O)N[C@@H](CC(C)C)C(=O)N[C@@H](Cc1ccccc1)C(=O)N[C@H](C(=O)N[C@@H](CCC(=O)O)C(=O)N[C@@H](Cc1c[nH]c2ccccc12)C(=O)N[C@@H](CC(C)C)C(=O)NC(C)(C)C(=O)N[C@@H](C)C(=O)NCC(=O)NCC(=O)N1CCC[C@H]1C(=O)N[C@@H](CO)C(=O)N[C@@H](CO)C(=O)NCC(=O)N[C@@H](C)C(=O)N1CCC[C@H]1C(=O)N1CCC[C@H]1C(=O)N1CCC[C@H]1C(=O)N[C@@H](CO)C(N)=O)[C@@H](C)CC)C(=O)O)C(=O)O [SEQ ID NO: 8, H-Aib-Q-G-T-F-T-S-D-L-S-K-Q-K(γE-γE-x53)-D-E-Q-R-A-K-L-F-I-E-W-L-Aib-A-G-G-P-S-S-G-A-P-P-P-S-NH2] | 0.0023 | 0.0281 | 2.14 | > 8 | > 8 | 4360 | 3.8 | 476 | 18.1 | significant decrease in blood glucose | 5 | reduced body weight significantly | -3.81 ± 0.6 | -5.38 ± 0.5
CCCCCCCCCCCCCCCC(=O)N[C@@H](CCC(=O)N[C@@H](CCC(=O)NCCCC[C@H](NC(=O)[C@H](CCC(N)=O)NC(=O)[C@H](CCCCN)NC(=O)[C@H](CO)NC(=O)[C@H](CC(C)C)NC(=O)[C@H](CC(=O)O)NC(=O)[C@H](CO)NC(=O)[C@@H](NC(=O)[C@H](Cc1ccccc1)NC(=O)[C@@H](NC(=O)CNC(=O)[C@H](CCC(N)=O)NC(=O)C(C)(C)NC(=O)[C@@H](N)Cc1c[nH]cn1)[C@@H](C)O)[C@@H](C)O)C(=O)N[C@@H](CC(=O)O)C(=O)N[C@@H](CCC(=O)O)C(=O)N[C@@H](CCC(N)=O)C(=O)N[C@@H](CCCNC(=N)N)C(=O)N[C@@H](C)C(=O)N[C@@H](CCCCN)C(=O)N[C@@H](CC(C)C)C(=O)N[C@@H](Cc1ccccc1)C(=O)N[C@H](C(=O)N[C@@H](CCC(=O)O)C(=O)N[C@@H](Cc1c[nH]c2ccccc12)C(=O)N[C@@H](CC(C)C)C(=O)NC(C)(C)C(=O)N[C@@H](C)C(=O)N[C@H](C)C(=O)NCC(=O)N1CCC[C@H]1C(=O)N[C@@H](CO)C(=O)N[C@@H](CO)C(=O)NCC(=O)N[C@@H](C)C(=O)N1CCC[C@H]1C(=O)N1CCC[C@H]1C(=O)N1CCC[C@H]1C(=O)N[C@@H](CO)C(N)=O)[C@@H](C)CC)C(=O)O)C(=O)O [SEQ ID NO: 7, H-Aib-Q-G-T-F-T-S-D-L-S-K-Q-K(γE-γE-x53)-D-E-Q-R-A-K-L-F-I-E-W-L-Aib-A-dAla-G-P-S-S-G-A-P-P-P-S-NH2] | 0.0034 | 0.101 | 7.62 | > 8 | > 8 | 5510 | 3.1 | 667 | 29 | significant decrease in blood glucose | 7 | statistically significant decrease | -3.73 ± 0.8 | -5.49 ± 0.9
